Laboratory results published in US10202360B2 (CELGENE QUANTICEL RESEARCH, INC., priority 2016, dated 2019).

The compounds below were run against CREBBP (Homo sapiens (Human), UniProt Q92793) (assay: In vitro enzyme inhibition assay - CREBBP inhibition (AlphaScreen, biotinylated H4-tetraacetyl peptide)). Conditions: Table 28; AlphaScreen, H4-tetraacetyl peptide.
Format: binding
Procedure: Determination of the IC50 for the CREBBP inhibitors disclosed herein was performed as follows: CREBBP was cloned and expressed in E. Coli as His-tag protein and purified by Nickel affinity and gel-filtration chromatography. […] CREBBP binding and inhibition was assessed by monitoring the interaction of biotinylated H4-tetraacetyl peptide (AnaSpec, H4K5/8/12/16(Ac), biotin-labeled) with the target using the AlphaScreen technology (Perkin Elmer). In a 384-well ProxiPlate CREBBP (50 nM final) was combined with peptide (20 nM final) in 50 mM HEPES (pH 7.3), 10 mM NaCl, 0.25 mM TCEP, 0.1% (w/v) BSA, and 0.005% (w/v) Brij-35 either in the presence of DMSO (final 0.4% DMSO) or compound dilution series in DMSO. After 20-minute incubation at room temperature, Alpha streptavidin donor beads and Nickel Chelate acceptor beads were added to a final concentration of 5 μg/mL. After two hours of equilibration, plates were read on an Envision instrument and the IC50 was calculated using a four parameter non-linear curve fit.
The ability of the compounds disclosed herein to inhibit CBP activity was quantified and the respective IC50 value was determined.

CREBBP, sequence (Q92793 1081-1197): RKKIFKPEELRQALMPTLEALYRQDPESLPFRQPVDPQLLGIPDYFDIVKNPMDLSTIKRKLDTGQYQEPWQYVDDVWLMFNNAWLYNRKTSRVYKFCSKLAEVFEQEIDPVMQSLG

Row | IC50 [nM] | Structure (SMILES)
1 | < 500 | CCCCS(=O)(=O)Nc1cc(-c2cc(C)c(=O)n(C)c2)nc(Oc2cc(OC)ccc2C#N)n1 [Example 35, Butane-1-sulfonic acid [2-(2-cyano-5-methoxy-phenoxy)-6-(1,5-dimethyl-6-oxo-1,6-dihydro-pyridin-3-yl)-pyrimidin-4-yl]-amide]
2 | < 500 | CCCCS(=O)(=O)Nc1cc(-c2cc(C)c(=O)n(C)c2)nc(Oc2cc(C)ccc2C#N)n1 [Example 36, Butane-1-sulfonic acid [2-(2-cyano-5-methyl-phenoxy)-6-(1,5-dimethyl-6-oxo-1,6-dihydro-pyridin-3-yl)-pyrimidin-4-yl]-amide]
3 | < 500 | CCCCS(=O)(=O)Nc1cc(-c2cc(C)c(=O)n(C)c2)nc(Oc2ccccc2C#N)n1 [Example 37, Butane-1-sulfonic acid [2-(2-cyano-phenoxy)-6-(1,5-dimethyl-6-oxo-1,6-dihydro-pyridin-3-yl)-pyrimidin-4-yl]-amide]
4 | < 500 | CCCCS(=O)(=O)Nc1cc(-c2cc(C)c(=O)n(C)c2)nc(Oc2cc(C(C)C)ccc2Cl)n1 [Example 38, Butane-1-sulfonic acid [2-(2-chloro-5-isopropyl-phenoxy)-6-(1,5-dimethyl-6-oxo-1,6-dihydro-pyridin-3-yl)-pyrimidin-4-yl]-amide]
5 | < 500 | CCCS(=O)(=O)Nc1cc(-c2cc(C)c(=O)n(C)c2)nc(Oc2cc(C(C)C)ccc2Cl)n1 [Example 39, Propane-1-sunnic acid [2-(2-chloro-5-isopropyl-phenoxy)-6-(1,5-dimethyl-6-oxo-1,6-dihydro-pyridin-3-yl)-pyrimidin-4-yl]-amide]
6 | < 500 | CCCS(=O)(=O)Nc1cc(-c2cc(C)c(=O)n(C)c2)nc(Oc2c(Cl)cccc2CC)n1 [Example 42, Propane-1-sulfonic acid [2-(2-chloro-6-ethyl-phenoxy)-6-(1,5-dimethyl-6-oxo-1,6-dihydro-pyridin-3-yl)-pyrimidin-4-yl]-amide]
7 | < 500 | CCc1cccc(Cl)c1Oc1nc(NS(=O)(=O)C(C)C)cc(-c2cc(C)c(=O)n(C)c2)n1 [Example 43, Propane-2-sulfonic acid [2-(2-chloro-6-ethyl-phenoxy)-6-(1,5-dimethyl-6-oxo-1,6-dihydro-pyridin-3-yl)-pyrimidin-4-yl]-amide]
8 | 500 to 5000 | CCCn1cc(-c2cc(NS(=O)(=O)C(C)C)nc(Oc3ccc(F)cc3F)n2)cc(C)c1=O [Example 45, Propane-2-sulfonic acid [2-(2,4-difluoro-phenoxy)-6-(5-methyl-6-oxo-1-propyl-1,6-dihydro-pyridin-3-yl)-pyrimidin-4-yl]-amide]
9 | 500 to 5000 | CCCS(=O)(=O)Nc1cc(-c2cc(C)c(=O)n(C3CC3)c2)nc(Oc2c(C)cccc2C)n1 [Example 54, Propane-1-sulfonic acid [6-(1-cyclopropyl-5-methyl-6-oxo-1,6-dihydro-pyridin-3-yl)-2-(2,6-dimethyl-phenoxy)-pyrimidin-4-yl]-amide]
10 | 500 to 5000 | CCCS(=O)(=O)Nc1cc(-c2cc(C)c(=O)n(C3COC3)c2)nc(Oc2c(C)cccc2C)n1 [Example 55, Propane-1-sulfonic acid [2-(2,6-dimethyl-phenoxy)-6-(5-methyl-1-oxetan-3-yl-6-oxo-1,6-dihydro-pyridin-3-yl)-pyrimidin-4-yl]-amide]
11 | < 500 | CCCCS(=O)(=O)Nc1cc(Oc2c(C)cccc2C)nc(-c2cc(C)c(=O)n(C)c2)n1 [Example 56, Butane-1-sulfonic acid [2-(1,5-dimethyl-6-oxo-1,6-dihydro-pyridin-3-yl)-6-(2,6-dimethyl-phenoxy)-pyrimidin-4-yl]-amide]
12 | < 500 | Cc1cc(-c2cc(NS(=O)(=O)C3CC3)nc(Oc3ccc(F)cc3F)n2)cn(C)c1=O [Example 63, N-(2-(2,4-difluorophenoxy)-6-(1,5-dimethyl-6-oxo-1,6-dihydropyridin-3-yl)pyrimidin-4-yl)cyclopropanesulfonamide]

Second part, the compound before the results:

Row | Structure (SMILES) | IC50 [nM]
13 | Cc1cc(Cl)cc(Cl)c1Oc1nc(NS(=O)(=O)C(C)C)cc(-c2ccc(=O)n(C)c2)n1 [Example 34, Propane-2-sulfonic acid [2-(2,4-dichloro-6-methyl-phenoxy)-6-(1-methyl-6-oxo-1,6-dihydro-pyridin-3-yl)-pyrimidin-4-yl]-amide] | < 500
14 | Cc1cc(-c2cc(NS(=O)(=O)C(C)C)nc(Oc3cc(C(C)C)ccc3Cl)n2)cn(C)c1=O [Example 40, Propane-2-sulfonic acid [2-(2-chloro-5-isopropyl-phenoxy)-6-(1,5-dimethyl-6-oxo-1,6-dihydro-pyridin-3-yl)-pyrimidin-4-yl]-amide] | < 500
15 | CCn1cc(-c2cc(NS(=O)(=O)C(C)C)nc(Oc3ccc(F)cc3F)n2)cc(C)c1=O [Example 44, Propane-2-sulfonic acid [2-(2,4-difluoro-phenoxy)-6-(1-ethyl-5-methyl-6-oxo-1,6-dihydro-pyridin-3-yl)-pyrimidin-4-yl]-amide] | < 500
16 | CCCCn1cc(-c2cc(NS(=O)(=O)C(C)C)nc(Oc3ccc(F)cc3F)n2)cc(C)c1=O [Example 46, Propane-2-sulfonic acid [6-(1-butyl-5-methyl-6-oxo-1,6-dihydro-pyridin-3-yl)-2-(2,4-difluoro-phenoxy)-pyrimidin-4-yl]-amide] | > 5000
17 | Cc1cc(-c2cc(NS(=O)(=O)C(C)C)nc(Oc3ccc(F)cc3F)n2)cn(C(C)C)c1=O [Example 47, Propane-2-sulfonic acid [2-(2,4-difluoro-phenoxy)-6-(1-isopropyl-5-methyl-6-oxo-1,6-dihydro-pyridin-3-yl)-pyrimidin-4-yl]-amide] | 500 to 5000
18 | Cc1cc(-c2cc(NS(=O)(=O)C(C)C)nc(Oc3ccc(F)cc3F)n2)cn(CC(C)C)c1=O [Example 48, Propane-2-sulfonic acid [2-(2,4-difluoro-phenoxy)-6-(1-isobutyl-5-methyl-6-oxo-1,6-dihydro-pyridin-3-yl)-pyrimidin-4-yl]-amide] | > 5000
19 | Cc1cc(-c2cc(NS(=O)(=O)C(C)C)nc(Oc3ccc(F)cc3F)n2)cn(CC2CC2)c1=O [Example 49, Propane-2-sulfonic acid [6-(1-cyclopropylmethyl-5-methyl-6-oxo-1,6-dihydro-pyridin-3-yl)-2-(2,4-difluoro-phenoxy)-pyrimidin-4-yl]-amide] | < 500
20 | Cc1cc(-c2cc(NS(=O)(=O)C(C)C)nc(Oc3ccc(F)cc3F)n2)cn(CC2CCC2)c1=O [Example 50, Propane-2-sulfonic acid [6-(1-cyclobutylmethyl-5-methyl-6-oxo-1,6-dihydro-pyridin-3-yl)-2-(2,4-difluoro-phenoxy)-pyrimidin-4-yl]-amide] | > 5000
21 | CC(=O)OCCn1cc(-c2cc(NS(=O)(=O)C(C)C)nc(Oc3ccc(F)cc3F)n2)cc(C)c1=O [Example 51, Acetic acid 2-{5-[2-(2,4-difluoro-phenoxy)-6-(propane-2-sulfonylamino)-pyrimidin-4-yl]-3-methyl-2-oxo-2H-pyridin-1-yl}-ethyl ester] | 500 to 5000
22 | Cc1cc(-c2cc(NS(=O)(=O)C(C)C)nc(Oc3ccc(F)cc3F)n2)cn(CC(F)(F)F)c1=O [Example 52, Propane-2-sulfonic acid {2-(2,4-difluoro-phenoxy)-6-[5-methyl-6-oxo-1-(2,2,2-trifluoro-ethyl)-1,6-dihydro-pyridin-3-yl]-pyrimidin-4-yl}-amide] | 500 to 5000
23 | COCCn1cc(-c2cc(NS(=O)(=O)C(C)C)nc(Oc3ccc(F)cc3F)n2)cc(C)c1=O [Example 53, Propane-2-sulfonic acid {2-(2,4-difluoro-phenoxy)-6-[1-(2-methoxy-ethyl)-5-methyl-6-oxo-1,6-dihydro-pyridin-3-yl]-pyrimidin-4-yl}-amide] | 500 to 5000
24 | Cc1cc(-c2cc(NS(=O)(=O)C(C)C)nc(Oc3cccc4ccn(C)c34)n2)cn(C)c1=O [Example 57, Propane-2-sulfonic acid [6-(1,5-dimethyl-6-oxo-1,6-dihydro-pyridin-3-yl)-2-(1-methyl-1H-indol-7-yloxy)-pyrimidin-4-yl]-amide] | < 500
25 | Cc1cc2c(Oc3nc(NS(=O)(=O)C(C)C)cc(-c4cc(C)c(=O)n(C)c4)n3)cccc2o1 [Example 58, N-(6-(1,5-dimethyl-6-oxo-1,6-dihydropyridin-3-yl)-2-((2-methylbenzofuran-4-yl)oxy)pyrimidin-4-yl)propane-2-sulfonamide] | < 500
26 | Cc1cc(-c2cc(NS(=O)(=O)C(C)C)nc(Oc3cccc4occc34)n2)cn(C)c1=O [Example 59, N-(2-(benzofuran-4-yloxy)-6-(1,5-dimethyl-6-oxo-1,6-dihydropyridin-3-yl)pyrimidin-4-yl)propane-2-sulfonamide] | < 500
27 | CCCS(=O)(=O)Nc1cc(Oc2c(C)cc(Cl)cc2Cl)nc(-c2cc(C)c(=O)n(C)c2)n1 [Example 60, Propane-1-sulfonic acid [6-(2,4-dichloro-6-methyl-phenoxy)-2-(1,5-dimethyl-6-oxo-1,6-dihydro-pyridin-3-yl)-pyrimidin-4-yl]-amide] | < 500
28 | Cc1cc(-c2cc(NS(C)(=O)=O)nc(Oc3ccc(F)cc3F)n2)cn(C)c1=O [Example 61, N-(2-(2,4-difluorophenoxy)-6-(1,5-dimethyl-6-oxo-1,6-dihydropyridin-3-yl)pyrimidin-4-yl)methanesulfonamide] | < 500
29 | Cc1cc(-c2cc(NS(=O)(=O)C(C)C)nc(Oc3ccc(F)cc3F)n2)cn(C)c1=O [Example 62, N-(2-(2,4-difluorophenoxy)-6-(1,5-dimethyl-6-oxo-1,6-dihydropyridin-3-yl)pyrimidin-4-yl)propane-2-sulfonamide] | < 500
